Measurements published in ChEMBL document CHEMBL1201862, “PubChem BioAssay data set” (2004).
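Briefly, cells in 96-well plates were exposed to five compound concentrations for 48 h, and endpoints were estimated by linear interpolation. GI50 = concentration required for 50% inhibition of growth.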 Calls of active or inactive are those of the source. Cut-off read from the data, not from the text of the source: active = GI50 up to about 1.1 µM and inactive = higher.

Assays:
Test in all cases: inhibition of tumour cell growth, NCI panel, 48 h
786-0 = test system: 786-0
A498 = test system: A498
A549 = test system: A549
ACHN = test system: ACHN
BT-549 = test system: BT-549
CAKI-1 = test system: CAKI-1
CCRF-CEM = test system: CCRF-CEM
COLO 205 = test system: COLO 205
DU-145 = test system: DU-145
EKVX = test system: EKVX
HCC 2998 = test system: HCC 2998
HCT-116 = test system: HCT-116
HCT-15 = test system: HCT-15
HL-60 = test system: HL-60
HOP-62 = test system: HOP-62
HOP-92 = test system: HOP-92
HT-29 = test system: HT-29
Hs-578T = test system: Hs-578T
IGROV-1 = test system: IGROV-1
K562 = test system: K562
KM12 = test system: KM12
LOX IMVI = test system: LOX IMVI
M14 = test system: M14
MCF7 = test system: MCF7
MDA-MB-231 = test system: MDA-MB-231
MDA-MB-435 = test system: MDA-MB-435
MDA-N = test system: MDA-N
MOLT-4 = test system: MOLT-4
Malme-3M = test system: Malme-3M
NCI-H226 = test system: NCI-H226
NCI-H23 = test system: NCI-H23
NCI-H460 = test system: NCI-H460
NCI-H522 = test system: NCI-H522
NCI/ADR-RES = test system: NCI/ADR-RES
OVCAR-3 = test system: OVCAR-3
OVCAR-4 = test system: OVCAR-4
OVCAR-5 = test system: OVCAR-5
OVCAR-8 = test system: OVCAR-8
PC-3 = test system: PC-3
RPMI-8226 = test system: RPMI-8226
RXF 393 = test system: RXF 393
SF-268 = test system: SF-268
SF-295 = test system: SF-295
SF-539 = test system: SF-539
SK-MEL-28 = test system: SK-MEL-28
SK-MEL-2 = test system: SK-MEL-2
SK-MEL-5 = test system: SK-MEL-5
SK-OV-3 = test system: SK-OV-3
SN12C = test system: SN12C
SNB-19 = test system: SNB-19
SNB-75 = test system: SNB-75
SR = test system: SR
SW-620 = test system: SW-620
T47D = test system: T47D
TK-10 = test system: TK-10
U-251 = test system: U-251
UACC-257 = test system: UACC-257
UACC-62 = test system: UACC-62
UO-31 = test system: UO-31

For `CC(=O)O/C(=C1\C[C@H]2[C@@H]3CC=C4C[C@@H](OC(C)=O)CC[C@]4(C)[C@H]3CC[C@]2(C)C1=O)C(F)(F)F`, the GI50 (786-0) was 8.53 µM (inactive), the GI50 (A498) was 19.3 µM (inactive) and the GI50 (A549) was 15.3 µM (inactive). The GI50 (ACHN) was 16.2 µM (inactive), the GI50 (BT-549) was 12.2 µM (inactive) and the GI50 (CAKI-1) was 9.71 µM (inactive). The GI50 (CCRF-CEM) was 1.95 µM (inactive), the GI50 (COLO 205) was 10.8 µM (inactive) and the GI50 (DU-145) was 9.95 µM (inactive). For the same compound, the GI50 (EKVX) was 12.7 µM (inactive), the GI50 (HCC 2998) was 6.31 µM (inactive) and the GI50 (HCT-116) was 6.15 µM (inactive). The GI50 (HCT-15) was 4.03 µM, the GI50 (HL-60) was 3.51 µM (inactive) and the GI50 (HOP-62) was 14.1 µM (inactive). For the same compound, the GI50 (HOP-92) was 8.24 µM (inactive), the GI50 (HT-29) was 10.1 µM (inactive) and the GI50 (Hs-578T) was 7 µM (inactive). The GI50 (IGROV-1) was 5.56 µM (inactive), the GI50 (K562) was 0.977 µM (active) and the GI50 (KM12) was 12.7 µM (inactive). The GI50 (LOX IMVI) was 1.86 µM (inactive), the GI50 (M14) was 7.19 µM (inactive) and the GI50 (MCF7) was 5.86 µM (inactive). The GI50 (MDA-MB-231) was 10.4 µM (inactive), the GI50 (MDA-MB-435) was 7.85 µM (inactive) and the GI50 (MDA-N) was 7.64 µM (inactive). The GI50 (MOLT-4) was 2.59 µM (inactive), the GI50 (Malme-3M) was 3.56 µM (inactive) and the GI50 (NCI-H226) was 21 µM (inactive). For the same compound, the GI50 (NCI-H23) was 6.85 µM (inactive), the GI50 (NCI-H460) was 4.7 µM (inactive) and the GI50 (NCI-H522) was 3.18 µM (inactive). For the same compound, the GI50 (NCI/ADR-RES) was 7.16 µM (inactive), the GI50 (OVCAR-3) was 5.87 µM (inactive) and the GI50 (OVCAR-4) was 11.4 µM (inactive). The GI50 (OVCAR-5) was 29.4 µM (inactive), the GI50 (OVCAR-8) was 5.18 µM (inactive) and the GI50 (PC-3) was 13.5 µM (inactive). The GI50 (RPMI-8226) was 4.08 µM (inactive), the GI50 (RXF 393) was 6.19 µM (inactive) and the GI50 (SF-268) was 6.62 µM (inactive). For the same compound, the GI50 (SF-295) was 16.2 µM (inactive), the GI50 (SF-539) was 7.24 µM (inactive) and the GI50 (SK-MEL-28) was 14.9 µM (inactive). The GI50 (SK-MEL-2) was 7.62 µM (inactive), the GI50 (SK-MEL-5) was 6.08 µM (inactive) and the GI50 (SK-OV-3) was 20.1 µM (inactive). For the same compound, the GI50 (SN12C) was 8.97 µM (inactive), the GI50 (SNB-19) was 17.8 µM (inactive) and the GI50 (SNB-75) was 21.9 µM (inactive). The GI50 (SR) was 2.88 µM (inactive), the GI50 (SW-620) was 5.61 µM (inactive) and the GI50 (T47D) was 7.4 µM (inactive). The GI50 (TK-10) was 12.2 µM (inactive), the GI50 (U-251) was 5.43 µM (inactive) and the GI50 (UACC-257) was 6.98 µM (inactive). For the same compound, the GI50 (UACC-62) was 8.77 µM (inactive) and the GI50 (UO-31) was 12.1 µM (inactive).
With `COc1ccc2cc(NC(=O)N/N=C\c3ccc([N+](=O)[O-])cc3)ccc2c1` the GI50 (786-0) was 30.5 µM (inactive), the GI50 (A498) was 53 µM (inactive) and the GI50 (A549) was 34.1 µM (inactive). For the same compound, the GI50 (ACHN) was 37.6 µM (inactive), the GI50 (BT-549) was 27.2 µM (inactive) and the GI50 (CAKI-1) was 43.6 µM (inactive). For the same compound, the GI50 (CCRF-CEM) was > 100 µM (inactive), the GI50 (COLO 205) was > 100 µM (inactive) and the GI50 (DU-145) was > 100 µM (inactive). For the same compound, the GI50 (EKVX) was 81.8 µM (inactive), the GI50 (HCC 2998) was 12.9 µM (inactive) and the GI50 (HCT-116) was 53.3 µM (inactive). For the same compound, the GI50 (HCT-15) was 48 µM, the GI50 (HL-60) was 45 µM (inactive) and the GI50 (HOP-62) was 19.5 µM (inactive). For the same compound, the GI50 (HOP-92) was 39.5 µM (inactive), the GI50 (HT-29) was 33.5 µM (inactive) and the GI50 (Hs-578T) was 42.5 µM (inactive). For the same compound, the GI50 (IGROV-1) was 23.7 µM (inactive), the GI50 (K562) was 80.4 µM (inactive) and the GI50 (KM12) was 72.3 µM (inactive). For the same compound, the GI50 (LOX IMVI) was > 100 µM (inactive), the GI50 (M14) was 30.8 µM (inactive) and the GI50 (MCF7) was 29.9 µM (inactive). For the same compound, the GI50 (MDA-MB-231) was 37.4 µM (inactive), the GI50 (MDA-MB-435) was 69 µM (inactive) and the GI50 (MDA-N) was 79.3 µM (inactive). For the same compound, the GI50 (MOLT-4) was > 100 µM (inactive), the GI50 (Malme-3M) was 23.4 µM (inactive) and the GI50 (NCI-H226) was 18.7 µM (inactive). The GI50 (NCI-H23) was 22.9 µM (inactive), the GI50 (NCI-H460) was 29.4 µM (inactive) and the GI50 (NCI-H522) was 16 µM (inactive). For the same compound, the GI50 (NCI/ADR-RES) was 23.8 µM (inactive), the GI50 (OVCAR-3) was 40.5 µM (inactive) and the GI50 (OVCAR-4) was 1.91 µM (inactive). For the same compound, the GI50 (OVCAR-5) was 45.9 µM (inactive), the GI50 (OVCAR-8) was 21.8 µM (inactive) and the GI50 (PC-3) was 27.6 µM (inactive). For the same compound, the GI50 (RPMI-8226) was 35.7 µM (inactive), the GI50 (RXF 393) was 20.4 µM (inactive) and the GI50 (SF-268) was 20.1 µM (inactive). For the same compound, the GI50 (SF-295) was 25.9 µM (inactive), the GI50 (SK-MEL-28) was > 100 µM (inactive) and the GI50 (SK-MEL-2) was 60.3 µM (inactive). For the same compound, the GI50 (SK-MEL-5) was 73.3 µM (inactive), the GI50 (SK-OV-3) was 31 µM (inactive) and the GI50 (SN12C) was 86.3 µM (inactive). For the same compound, the GI50 (SNB-19) was 20.4 µM (inactive), the GI50 (SNB-75) was 21.3 µM (inactive) and the GI50 (SR) was > 100 µM (inactive). For the same compound, the GI50 (SW-620) was > 100 µM (inactive), the GI50 (T47D) was 49.1 µM (inactive) and the GI50 (U-251) was 29.9 µM (inactive). For the same compound, the GI50 (UACC-257) was 42.2 µM (inactive), the GI50 (UACC-62) was 20.9 µM (inactive) and the GI50 (UO-31) was 17.1 µM (inactive).
